The values that follow come from patent publication US20260216175A1, “COMPLEMENT INHIBITION” (Apellis Pharmaceuticals, Inc., priority 2023, published 2026).

Tested on in the first test: not listed separately
As to the kind of experiment: biological activity of enantiomers (assay not specified). The settings on record: first eluting vs second eluting enantiomer.
As to `COc1cc(C)c2[nH]ccc2c1CN1CCN(CC(F)F)CC1c1ccc(C(=O)O)c(O)c1` (single isomer, unassigned) [Example 68, 4-(4-(2,2-difluoroethyl)-1-((5-methoxy-7-methyl-1H-indol-4-yl)methyl)piperazin-2-yl)-2-hydroxybenzoic acid], the “biological activity, comparison of enantiomers” value was “more active enantiomer”.

A further test concerns complement activation.
Assay: not given
As to conditions: fold activity relative to compstatin amidated at the C-terminus; based on published data and assays (WO2004/026328, WO2007044668, Mallik 2005; Katragadda 2006); cited from earlier work.
Regarding “Ac-ICV(1-Nal)QDWGAHRCT-COOH [Ac V4(1-Nal)/H9A —OH]”, the Activity over compstatin is on record as 30 × more.
With “Ac-ICV(2-IgI)QDWGAHRCT-CONH2 [Ac-V42IgI/H9A]”, the Activity over compstatin is 39 × more.
With “Ac-ICV(2-IgI)QDWGAHRCT-COOH [Ac-V42IgI/H9A —OH]”, the Activity over compstatin is given as 37 × more.
As to “Ac-ICV(2-Nal)QDWGAHRCT-CONH2 [Ac-V4(2-Nal)/H9A]”, the Activity over compstatin is listed as 99 × more.
Turning to “Ac-ICV(2-Nal)QDWGAHRCT-COOH [Ac V4(2-Nal)/H9A —OH]”, the Activity over compstatin is on record as 38 × more.
For “Ac-ICV(Bpa)QDWGAHRCT-CONH2 [Ac-V4(Bpa)/H9A]”, the Activity over compstatin is reported as 86 × more.
In the case of “Ac-ICV(Bpa)QDWGAHRCT-COOH [Ac-V4(Bpa)/H9A —OH]”, the Activity over compstatin is listed as 49 × more.
Consider “Ac-ICVDhtQDWGAHRCT-COOH [Ac-V4Dht/H9A —OH]”, for which the Activity over compstatin is 5 × more.
Ac-ICVVQDWGHHRCT-CONH2 [Ac-compstatin]: the Activity over compstatin is reported as 3 × more.
Take “Ac-ICVWQD(5fW)GAHRCT-CONH2 [Ac-V4W/W7(5fW)/H9A]”: the Activity over compstatin was 121 × more.
Consider “Ac-ICVWQDWGAHRCT-CONH2 (Ac-ICVWQDWGAHRCT-NH2; cysteine pairing not given here) [Ac-V4W/H9A, compstatin analog]”, for which the Activity over compstatin is listed as 45 × more.
As to “Ac-ICVWQDWGAHRCdT-COOH [Ac-V4W/H9A/T13dT —OH]”, the Activity over compstatin is recorded as 55 × more.
For Ac-ICVYQDWGAHRCT-CONH2 [Ac-V4Y/H9A], the Activity over compstatin is on record as 14 × more.
“H-GICV(6fW)QD(6fW)GAHRCTN-COOH [+G/V4(6fW)/W7(6fW)H9A + N—OH]”: the Activity over compstatin is 126 × more.
